Source: patent US10829501B2 (BRISTOL-MYERS SQUIBB COMPANY, priority 2016, dated 2020)
Structures can show the parent of a compound that is named as a salt.

Target: ROCK2 (Homo sapiens, UniProt O75116)
Assay: ROCK2 kinase inhibition assay (LABCHIP 3000 Reader, FITC peptide substrate);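 also: rho kinase reaction read by separating phosphorylated from unphosphorylated peptide on chip, with inhibition of kinase activity computed per concentration across a dose-response series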
Settings: not given

ROCK2, sequence (O75116 whole entry, species assumed): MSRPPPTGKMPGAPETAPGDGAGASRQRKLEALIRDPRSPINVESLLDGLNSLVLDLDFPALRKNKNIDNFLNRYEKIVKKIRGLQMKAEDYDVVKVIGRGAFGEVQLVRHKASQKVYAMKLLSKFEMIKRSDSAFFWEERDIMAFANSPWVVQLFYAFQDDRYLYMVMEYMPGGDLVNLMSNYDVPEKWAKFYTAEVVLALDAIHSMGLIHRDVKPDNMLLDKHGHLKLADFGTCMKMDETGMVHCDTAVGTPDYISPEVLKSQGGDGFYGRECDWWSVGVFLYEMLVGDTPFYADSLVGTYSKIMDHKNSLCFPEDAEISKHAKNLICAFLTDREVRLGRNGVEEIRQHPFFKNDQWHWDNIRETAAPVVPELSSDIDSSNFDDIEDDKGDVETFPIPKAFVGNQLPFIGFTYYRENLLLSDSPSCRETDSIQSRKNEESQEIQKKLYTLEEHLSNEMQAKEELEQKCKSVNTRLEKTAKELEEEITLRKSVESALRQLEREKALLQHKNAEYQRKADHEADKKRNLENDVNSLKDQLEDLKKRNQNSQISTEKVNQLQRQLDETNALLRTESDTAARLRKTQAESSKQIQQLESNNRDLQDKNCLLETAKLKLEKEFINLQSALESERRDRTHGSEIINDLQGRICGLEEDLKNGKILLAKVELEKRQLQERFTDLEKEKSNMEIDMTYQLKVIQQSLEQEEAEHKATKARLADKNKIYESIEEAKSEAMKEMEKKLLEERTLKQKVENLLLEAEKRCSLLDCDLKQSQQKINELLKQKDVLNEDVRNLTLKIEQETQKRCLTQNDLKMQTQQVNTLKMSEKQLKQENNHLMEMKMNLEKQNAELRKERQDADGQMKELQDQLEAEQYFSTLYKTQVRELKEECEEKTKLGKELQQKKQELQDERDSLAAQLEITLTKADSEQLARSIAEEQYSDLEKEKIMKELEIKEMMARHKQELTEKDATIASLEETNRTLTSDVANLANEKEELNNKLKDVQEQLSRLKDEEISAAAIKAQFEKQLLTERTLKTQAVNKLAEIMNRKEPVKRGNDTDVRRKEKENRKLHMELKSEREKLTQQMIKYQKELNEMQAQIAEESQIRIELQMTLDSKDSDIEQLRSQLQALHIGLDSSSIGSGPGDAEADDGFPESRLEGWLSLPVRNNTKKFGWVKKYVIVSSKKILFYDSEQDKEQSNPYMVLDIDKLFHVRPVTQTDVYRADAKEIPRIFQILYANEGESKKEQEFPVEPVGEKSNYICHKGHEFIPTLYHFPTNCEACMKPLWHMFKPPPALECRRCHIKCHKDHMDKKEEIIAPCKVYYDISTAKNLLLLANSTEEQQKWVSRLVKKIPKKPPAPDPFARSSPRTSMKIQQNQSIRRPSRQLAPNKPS

Row | IC50 | Compound
1 | 50 to 250 nM | Cc1c(C(=O)NC2CC3(C2)CC(Oc2ccccc2C(N)=O)C3)cnn1-c1ccccc1 (stereo not shown) [Example 1, N-(6-(2-carbamoylphenoxy)spiro[3.3]heptan-2-yl)-5-methyl-1-phenyl-1H-pyrazole-4-carboxamide]
2 | 50 to 250 nM | Cn1nc(C(=O)NC2CC3(C2)CC(Oc2ccccc2C(N)=O)C3)c2ccccc21 (stereo not shown) [Example 2, N-(6-(2-carbamoylphenoxy)spiro[3.3]heptan-2-yl)-1-methyl-1H-indazole-3-carboxamide]
3 | 5 to 50 nM | NC(=O)c1cccnc1OC1CC2(CC(NC(=O)c3cnn4cc(OC5CCOCC5)ccc34)C2)C1 (stereo not shown) [Example 11, N-(6-((3-carbamoylpyridin-2-yl)oxy)spiro[3.3]heptan-2-yl)-6-((tetrahydro-2H-pyran-4-yl)oxy)pyrazolo[1,5-a]pyridine-3-carboxamide]
4 | 50 to 250 nM | NC(=O)c1cccnc1OC1CC2(CC(NC(=O)N3CCc4ccccc43)C2)C1 (stereo not shown) [Example 12, N-(6-((3-carbamoylpyridin-2-yl)oxy)spiro[3.3]heptan-2-yl)indoline-1-carboxamide]
5 | 250 to 2500 nM | NC(=O)c1ccccc1OC1CC2(CC(NC(=O)OCc3ccccc3)C2)C1 [Example 14, benzyl ((aR)-6-(2-carbamoylphenoxy)spiro[3.3]heptan-2-yl)carbamate]
6 | < 5 nM | [H][C@]1(Oc2ccccc2C(N)=O)C[C@@]2(C[C@H](NC(=O)c3cnn4c(C5CC5)c(OCC(C)(C)O)ccc34)C2)C1 (stereo partly drawn) [Example 15, N-((aR)-6-(2-carbamoylphenoxy)spiro[3.3]heptan-2-yl)-7-cyclopropyl-6-(2-hydroxy-2-methylpropoxy)pyrazolo[1,5-a]pyridine-3-carboxamide]
7 | < 5 nM | [H][C@]1(Oc2ccccc2C(N)=O)C[C@@]2(C[C@H](NC(=O)c3cnn4cc(OCC(C)(C)O)ccc34)C2)C1 (stereo partly drawn) [Example 16, N-((aR)-6-(2-carbamoylphenoxy)spiro[3.3]heptan-2-yl)-6-(2-hydroxy-2-methylpropoxy)pyrazolo[1,5-a]pyridine-3-carboxamide]
8 | 5 to 50 nM | NC(=O)c1ccccc1O[C@H]1CC2(C[C@H](NC(=O)c3cnn4cc(OCCN5CCCC5)ccc34)C2)C1 (stereo partly drawn) [Example 21, N-[(aR)-6-(2-carbamoylphenoxy)spiro[3.3]heptan-2-yl]-6-[2-(pyrrolidin-1-yl)ethoxy]pyrazolo[1,5-a]pyridine-3-carboxamide]
9 | 5 to 50 nM | NC(=O)c1ccccc1O[C@H]1CC2(C[C@H](NC(=O)c3cnn4cc(OCC(F)F)ccc34)C2)C1 (stereo partly drawn) [Example 22, N-[(aR)-6-(2-carbamoylphenoxy)spiro[3.3]heptan-2-yl]-6-(2,2-difluoroethoxy)pyrazolo [1,5-a]pyridine-3-carboxamide]
10 | 5 to 50 nM | NC(=O)c1ccccc1O[C@H]1CC2(C[C@H](NC(=O)c3cnn4cc(OC(F)F)ccc34)C2)C1 (stereo partly drawn) [Example 24, N-[(aR)-6-(2-carbamoylphenoxy)spiro[3.3]heptan-2-yl]-6-(difluoromethoxy)pyrazolo [1,5-a]pyridine-3-carboxamide]
11 | < 5 nM | NC(=O)c1ccccc1O[C@H]1CC2(C[C@H](NC(=O)c3cnc4cc(N5CCC(F)(F)C5)ccn34)C2)C1 (stereo partly drawn) [Example 25, N-[(aR)-6-(2-carbamoylphenoxy)spiro[3.3]heptan-2-yl)-7-(3,3-difluoropyrrolidin-1-yl)imidazo[1,2-a]pyridine-3-carboxamide]
12 | 5 to 50 nM | COC(=O)N1CC(Oc2ccc3c(C(=O)N[C@H]4CC5(C4)C[C@H](Oc4ccccc4C(N)=O)C5)cnn3c2)C1 (stereo partly drawn) [Example 27, methyl 3-((3-(((aR)-6-(2-carbamoylphenoxy)spiro[3.3]heptan-2-yl)carbamoyl)pyrazolo[1,5-a]pyridin-6-yl)oxy)azetidine-1-carboxylate]

More lines, now with the values behind:

Row | Compound | IC50
13 | CC(C)(O)COc1ccc2c(C(=O)N[C@H]3CC4(C3)C[C@H](Oc3ncccc3C(N)=O)C4)cnn2c1N1CCCCC1=O (atropisomer, axis not shown; (aR)) [Example 69, N-((aR)-6-((3-carbamoylpyridin-2-yl)oxy)spiro[3.3]heptan-2-yl)-6-(2-hydroxy-2-methylpropoxy)-7-(2-oxopiperidin-1-yl)pyrazolo[1,5-a]pyridine-3-carboxamide, trifluoroacetate] | 50 to 250 nM
14 | [H][C@]1(Oc2cc(-c3cnn(C)c3)ccc2C(N)=O)C[C@@]2(C[C@H](NC(=O)c3cnn4cc(OCC(C)(C)O)ccc34)C2)C1 (single isomer, unassigned) [Example 276] | 5 to 50 nM
15 | CC(C)(O)COc1ccc2c(C(=O)NC3CC4(C3)CC(Oc3ccccc3C(N)=O)C4)cnn2c1 (stereo not shown) [Example 3, N-(6-(2-carbamoylphenoxy)spiro[3.3]heptan-2-yl)-6-(2-hydroxy-2-methylpropoxy)pyrazolo[1,5-a]pyridine-3-carboxamide] | 5 to 50 nM
16 | NC(=O)c1ccccc1OC1CC2(CC(NC(=O)c3cnn4cc(OC5CCOC5)ccc34)C2)C1 (stereo not shown) [Example 4, N-(6-(2-carbamoylphenoxy)spiro[3.3]heptan-2-yl)-6-((tetrahydrofuran-3-yl)oxy)pyrazolo[1,5-a]pyridine-3-carboxamide] | 5 to 50 nM
17 | COc1cc(C(=O)NC2CC3(C2)CC(Oc2ccccc2C(N)=O)C3)ccc1-c1cn[nH]c1 (stereo not shown) [Example 5, N-(6-(2-carbamoylphenoxy)spiro[3.3]heptan-2-yl)-3-methoxy-4-(1H-pyrazol-4-yl)benzamide] | 50 to 250 nM
18 | CC(C)(O)COc1ccc2c(C(=O)NC3CC4(C3)CC(Oc3ncccc3C(N)=O)C4)cnn2c1 (stereo not shown) [Example 6, N-(6-((3-carbamoylpyridin-2-yl)oxy)spiro[3.3]heptan-2-yl)-6-(2-hydroxy-2-methylpropoxy)pyrazolo[1,5-a]pyridine-3-carboxamide] | < 5 nM
19 | CC(C)(O)COc1ccc2c(C(=O)NC3CC4(C3)CC(Oc3nccnc3C(N)=O)C4)cnn2c1 (stereo not shown) [Example 7, N-(6-((3-carbamoylpyrazin-2-yl)oxy)spiro[3.3]heptan-2-yl)-6-(2-hydroxy-2-methylpropoxy)pyrazolo[1,5-a]pyridine-3-carboxamide] | 250 to 2500 nM
20 | CC(C)(O)COc1ccc2c(C(=O)NC3CC4(C3)CC(Oc3ncncc3C(N)=O)C4)cnn2c1 (stereo not shown) [Example 8, N-(6-((5-carbamoylpyrimidin-4-yl)oxy)spiro[3.3]heptan-2-yl)-6-(2-hydroxy-2-methylpropoxy)pyrazolo[1,5-a]pyridine-3-carboxamide] | 50 to 250 nM
21 | NC(=O)c1cccnc1OC1CC2(CC(NC(=O)c3cnn4cc(OC(CF)CF)ccc34)C2)C1 (stereo not shown) [Example 9, N-(6-((3-carbamoylpyridin-2-yl)oxy)spiro[3.3]heptan-2-yl)-6-((1,3-difluoropropan-2-yl)oxy)pyrazolo[1,5-a]pyridine-3-carboxamide] | 5 to 50 nM
22 | NC(=O)c1cccnc1OC1CC2(CC(NC(=O)c3cnn4cc(OCCC(F)(F)F)ccc34)C2)C1 (stereo not shown) [Example 10, N-(6-((3-carbamoylpyridin-2-yl)oxy)spiro[3.3]heptan-2-yl)-6-(3,3,3-trifluoropropoxy)pyrazolo[1,5-a]pyridine-3-carboxamide] | 5 to 50 nM
23 | N#Cc1ccc2c(c1)CN(C(=O)NC1CC3(C1)CC(Oc1ncccc1C(N)=O)C3)C2 (stereo not shown) [Example 13, N-(6-((3-carbamoylpyridin-2-yl)oxy)spiro[3.3]heptan-2-yl)-5-cyanoisoindoline-2-carboxamide] | 50 to 250 nM
24 | COc1ccc2c(c1)CCN2C(=O)NC1CC2(C1)CC(Oc1ncccc1C(N)=O)C2 [Example 17, N-((aR)-6-((3-carbamoylpyridin-2-yl)oxy)spiro[3.3]heptan-2-yl)-5-methoxyindoline-1-carboxamide] | 50 to 250 nM
25 | NC(=O)c1ccccc1O[C@H]1CC2(C[C@H](NC(=O)c3cnc4cc(OCCC(F)(F)F)ccn34)C2)C1 (stereo partly drawn) [Example 18, N-[(aR)-6-(2-carbamoylphenoxy)spiro[3.3]heptan-2-yl]-7-(3,3,3-trifluoropropoxy)imidazo [1,2-a]pyridine-3-carboxamdie] | < 5 nM
26 | CC(C)(O)COc1ccc2c(C(=O)N[C@H]3CC4(C3)C[C@H](Oc3ccccc3C(N)=O)C4)cnn2c1CCC(F)(F)F (stereo partly drawn) [Example 19, N-[(aR)-6-(2-carbamoylphenoxy)spiro[3.3]heptan-2-yl]-6-(2-hydroxy-2-methylpropoxy)-7-(3,3,3-trifluoropropyl)pyrazolo [1,5-a]pyridine-3-carboxamide] | < 5 nM
27 | NC(=O)c1ccccc1O[C@H]1CC2(C[C@H](NC(=O)c3cnn4ccc(OCCN5CCOCC5)cc34)C2)C1 (stereo partly drawn) [Example 20, N-[(aR)-6-(2-carbamoylphenoxy)spiro[3.3]heptan-2-yl]-5-[2-(morpholin-4-yl)ethoxy]pyrazolo[1,5-a]pyridine-3-carboxamide] | 5 to 50 nM
28 | NC(=O)c1ccccc1O[C@H]1CC2(C[C@H](NC(=O)c3cnn4cc(N5CCC(F)(F)C5)ccc34)C2)C1 (stereo partly drawn) [Example 23, N-[(aR)-6-(2-carbamoylphenoxy)spiro[3.3]heptan-2-yl]-6-(3,3-difluoropyrrolidin-1-yl)pyrazolo[1,5-a]pyridine-3-carboxamide] | < 5 nM
29 | NC(=O)c1ccccc1O[C@H]1CC2(C[C@H](NC(=O)c3cnc4cc(OCCN5CCCC5)ccn34)C2)C1 (stereo partly drawn) [Example 26, N-((aR)-6-(2-carbamoylphenoxy)spiro[3.3]heptan-2-yl)-7-(2-(pyrrolidin-1-yl)ethoxy)imidazo[1,2-a]pyridine-3-carboxamdie] | 5 to 50 nM

Same assay, conditions: read-out: ROCK2 Activity (ROCK2 IC50); 5 μM ATP, 1.5 μM peptide substrate, pH 7.5

Row | Compound | IC50
30 | 2-(((aR)-6-(1- (pyridin-2-yl)-5- (trifluoromethyl)- 1H-pyrazole-4- carboxamido) spiro[3.3]heptan-2- yl)oxy) nicotinamide [Example 129] | 250 to 2500 nM
31 | 2-(((aR)-6-(3-(2- methylthiazol-4- yl)benzamido)spiro [3.3]heptan-2- yl)oxy)nicotinamide, trifluoroacetate [Example 133] | 5 to 50 nM
32 | 2-(((aR)-6-(3-cyano- 5-(1-methyl- 1H-pyrazol-4- yl)benzamido) spiro[3.3]heptan-2- yl)oxy)nicotinamide [Example 195] | < 5 nM
33 | 2-((aR)-6- (1-methyl-3- (trifluoromethyl)- 1H-pyrazole- 5-carboxamido) spiro[3.3]heptan- 2-yl)oxy) nicotinamide, trifluoroacetate [Example 86] | 50 to 250 nM
34 | 2-((aR)-6- (1-phenyl-1H- pyrazole-4- carboxamido) spiro[3.3]- heptan-2-yl)oxy) nicotinamide, trifluoroacetate [Example 73] | 5 to 50 nM
